Data taken from patent US5231101A, “Benzo[5,6]cyclohepta[1,2-B]pyridine derivatives and antiallergic agents comprising same” (SS Pharmaceutical Co., Ltd., priority 1991, dated 1993).

Tests used:
[1] = system: histamine-induced dermovascular penetration increase; experiment: Effect on histamine-induced dermovascular penetration increase; assay type: in vivo, guinea pig (5-week old); details: Cavia porcellus, 0.5 h; oral, 60 minutes before intradermal histamine (1 μg); blue spot area at 30 min; guinea pig; read-out: ID50 (the source's name)
Experimental: (4) Effect on histamine-induced dermovascular penetration increase In a shaved dorsal skin of a guinea pig (5-week old), 0.1 ml (1 μg) of histamine was intradermally injected. […] Thirty minutes later, the animal was sacrificed under exsanguination and was evaluated by square of the shortest and the longest diameters of the blue spot (histamine-injected site). Each test compound was orally administered 60 minutes before the injection of histamine.

[2] = system: isolated guinea pig ileum; experiment: Antihistaminergic action on the isolated guinea pig ileum (histamine-induced contraction); assay type: cell-based, guinea pig (Hartley male); details: Cavia porcellus
Experimental: (1) Antihistaminergic action on the isolated guinea pig ileum
(§1) After a Hartley male guinea pig was sacrificed under ether anesthesia and exsanguination, the ileum was immediately isolated and a preparation was prepared. The preparation was suspended in a 20 ml Magnus bath containing 32° C. Tyrode solution (95% O2 -5% CO2 saturation) and was placed under resting tension of 1 g. The isometrical changes of the muscular tension produced were recorded on the polygraph through the force displacement transducer.

[3] = system: isolated guinea pig ileum; experiment: Antiacetylcholinergic action on the isolated guinea pig ileum (acetylcholine-induced contraction); assay type: cell-based, guinea pig (Hartley male); details: Cavia porcellus
Experimental: as §1
(2) Antiacetylcholinergic action on the isolated guinea pig ileum

[4] = system: isolated guinea pig ileum; experiment: Antihistamine selectivity determined from experiments (1) and (2); assay type: cell-based; details: determined from results of experiments (1) antihistaminergic and (2) antiacetylcholinergic action
Experimental: as §1
(3) Antihistamine selectivity
From the results of the above experiments (1) and (2), the antihistamine selectivity was determined in accordance with the following formula. [formula]

ddy male mice = experiment: Effects on sleeping time (pentobarbital-induced); assay type: in vivo, mouse (ddy male); details: 10 mg/kg oral, 1 hour before pentobarbital (50 mg/kg i.p.), n=10, control 46.6 ± 3.8, ** p < 0.01 relative to the control (marked for loratadine only)
Experimental: (5) Effects on sleeping time Animals used in groups were ddy male mice, each group consisting of ten mice. After fasted for 24 hours, they were orally administered with a test compound. Upon an elapsed time of 1 hour after the oral administration, pentobarbital (50 mg/kg) was intraperitoneally administered and the sleeping time was measured. Statistical evaluation was performed by one-way analysis of variance, followed by the Turkey test for multiple comparison.

Acute toxicity = details: mouse, in vivo; oral, ICR mice
Excerpt: The invention compound (Compound No. 1) was orally administered to ICR mice.

Compound	ED50 [1]	IC50 ([2]; vs histamine (10^-5 M)-induced contraction, isolated guinea pig ileum, 32° C. Tyrode solution, read-out: IC50)	IC50 ([3]; vs acetylcholine (3×10^-5 M), isolated guinea pig ileum, read-out: IC50)	Antihistamic selectivity [4]	Sleeping time (ddy male mice)	LD50 (Acute toxicity)	IC50 [2]	IC50 [3]
CC(C)(C)c1ccc(C(O)CCCN2CCC(C(O)(c3ccccc3)c3ccccc3)CC2)cc1 (stereo not drawn) [Terfenadine]	3.34 mg/kg							
CN1CCC(=C2c3ccc(C#N)cc3CCc3cccnc32)CC1 [Compound No. 1, 8-Cyano-11-(1-methyl-4-piperidylidene)-6,11-dihydro-5H-benzo[5,6]-cyclohepta[1,2-b]pyridine]	0.012 mg/kg	0.0151 µM	48.5 µM	3212	62.9 ± 5.8 min	657 mg/kg		
CCOC(=O)N1CCC(=C2c3ccc(Cl)cc3CCc3cccnc32)CC1 [Loratadine]	0.534 mg/kg			190	75.7 ± 5.8 min		0.123 µM	23.4 µM
